Measurements: patent US20250032454A1, “KDM1A INHIBITORS FOR THE TREATMENT OF DISEASE” (Imago Biosciences, Inc., priority 2021, published 2025)
Like-named read-outs stand apart in the source and are kept apart here.

Tests used:
LSD1 = LSD1 (Homo sapiens, UniProt O60341); experiment: LSD1 fluorescence coupling enzyme assay (HRP/Amplex Red, H3(1-21)K4me2 peptide), 10-dose IC50; type: biochemical; settings: 10 μM histone H3(1-21)K4me2 peptide substrate, 3-fold serial dilution from 100 μM
In short: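 Fluorescence coupled assay: LSD1 demethylation of 10 μM H3(1-21)K4me2 peptide produces FAD-dependent H2O2, detected via HRP/Amplex Red as resorufin (Ex/Em 535/590 nm). IC50 from 10 doses, 3-fold serial dilution from 100 μM, in duplicate.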

MV4;11 cells = experiment: Cell Titer-Glo cell growth inhibition in MV4;11 cell line (Day 5 / Day 10); type: cell-based
In short: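 Cells seeded at 3750/well and treated with a 10-point, 4-fold dose curve from 0 to 50 µM; ATP-based luminescence viability read at Day 5. A portion is reseeded into fresh compound and media for 5 more days, read at Day 10; IC50 derived from luminescence.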

[1] = Homo sapiens, MV4-11, 240 h, Day 10, read-out: Cell Titer-Glo IC50 (10 d)
[2] = Homo sapiens, MV4-11, 120 h, Day 5, read-out: Cell Titer-Glo IC50 (5 d)

Cn1nc2ccc(-n3nc(NC[C@H]4CCC[C@H](N)C4)cc3-c3ccc(C#N)c(F)c3)cc2n1 [Example 69, 4-(3-((((15,3S)-3-aminocyclohexyl)methyl)amino)-1-(2-methyl-2H-benzo[d][1,2,3]triazol-5-yl)-1H-pyrazol-5-yl)-2-fluorobenzonitrile]
IC50 (LSD1): < 500 nM
IC50 (MV4;11 cells; [1]): < 500 nM

N#Cc1ccc(-c2cc(NC[C@@H]3CCC[C@@H](N)C3)nn2-c2ccc3nn(CCO)cc3c2)cc1F [Example 70, 4-(3-((((1R,3R)-3-aminocyclohexyl)methyl)amino)-1-(2-(2-hydroxyethyl)-2H-indazol-5-yl)-1H-pyrazol-5-yl)-2-fluorobenzonitrile]
IC50 (LSD1): < 500 nM
IC50 (MV4;11 cells; [2]): 1000 to 10000 nM
IC50 (MV4;11 cells; [1]): < 500 nM

N#Cc1ccc(-c2cc(NC[C@@H]3CCC[C@@H](N)C3)nn2-c2ccc3c(cnn3CCO)c2)cc1F [Example 71, 4-(3-((((1R,3R)-3-aminocyclohexyl)methyl)amino)-1-(1-(2-hydroxyethyl)-1H-indazol-5-yl)-1H-pyrazol-5-yl)-2-fluorobenzonitrile]
IC50 (LSD1): < 500 nM
IC50 (MV4;11 cells; [2]): < 500 nM
IC50 (MV4;11 cells; [1]): < 500 nM

CC(C)n1cc2cc(-n3nc(NC[C@@H]4CCC[C@@H](N)C4)cc3-c3ccc(C#N)c(F)c3)ccc2n1 [Example 72, 4-(3-((((1R,3R)-3-aminocyclohexyl)methyl)amino)-1-(2-isopropyl-2H-indazol-5-yl)-1H-pyrazol-5-yl)-2-fluorobenzonitrile]
IC50 (LSD1): 1000 to 10000 nM
IC50 (MV4;11 cells; [2]): 500 to 1000 nM
IC50 (MV4;11 cells; [1]): < 500 nM

CC(C)n1ncc2cc(-n3nc(NC[C@@H]4CCC[C@@H](N)C4)cc3-c3ccc(C#N)c(F)c3)ccc21 [Example 73, 4-(3-((((1R,3R)-3-aminocyclohexyl)methyl)amino)-1-(1-isopropyl-1H-indazol-5-yl)-1H-pyrazol-5-yl)-2-fluorobenzonitrile]
IC50 (LSD1): < 500 nM
IC50 (MV4;11 cells; [2]): 500 to 1000 nM
IC50 (MV4;11 cells; [1]): < 500 nM

Cn1nnc2ccc(-n3nc(NC[C@H]4CCC[C@H](N)C4)cc3-c3ccc(C#N)c(F)c3)cc21 [Example 74, 4-(3-((((15,3S)-3-aminocyclohexyl)methyl)amino)-1-(1-methyl-1H-benzo[d][1,2,3]triazol-6-yl)-1H-pyrazol-5-yl)-2-fluorobenzonitrile]
IC50 (LSD1): 1000 to 10000 nM
IC50 (MV4;11 cells; [2]): 1000 to 10000 nM
IC50 (MV4;11 cells; [1]): < 500 nM

N#Cc1ccc(-c2cc(NC[C@@H]3CCC[C@@H](N)C3)nn2-c2ccc3c(cnn3-c3ccncc3)c2)cc1F [Example 76, 4-(3-((((1R,3R)-3-aminocyclohexyl)methyl)amino)-1-(1-(pyridin-4-yl)-1H-indazol-5-yl)-1H-pyrazol-5-yl)-2-fluorobenzonitrile]
IC50 (LSD1): < 500 nM
IC50 (MV4;11 cells; [2]): 500 to 1000 nM
IC50 (MV4;11 cells; [1]): < 500 nM

COc1ccc(-n2nc(NC[C@H]3CCC[C@@H](CN)C3)cc2-c2ccc(C#N)c(F)c2)cc1 [Example 77, 4-(3-((((1S,3R)-3-(aminomethyl)cyclohexyl)methyl)amino)-1-(4-methoxyphenyl)-1H-pyrazol-5-yl)-2-fluorobenzonitrile]
IC50 (LSD1): 1000 to 10000 nM
IC50 (MV4;11 cells; [2]): 1000 to 10000 nM
IC50 (MV4;11 cells; [1]): 1000 to 10000 nM

COc1ccc(-n2nc(NC[C@@H]3CCC[C@@H](CN)C3)cc2-c2ccc(C#N)c(F)c2)cc1 [Example 78, 4-(3-((((1R,3R)-3-(aminomethyl)cyclohexyl)methyl)amino)-1-(4-methoxyphenyl)-1H-pyrazol-5-yl)-2-fluorobenzonitrile]
IC50 (LSD1): < 500 nM
IC50 (MV4;11 cells; [2]): 1000 to 10000 nM
IC50 (MV4;11 cells; [1]): 1000 to 10000 nM

COc1ccc(-n2nc(N3CCCC4CCCCC43)cc2-c2ccc(C#N)c(F)c2)cc1 (stereo not drawn) [Example 82, 2-fluoro-4-(1-(4-methoxyphenyl)-3-(octahydroquinolin-1(2H)-yl)-1H-pyrazol-5-yl)benzonitrile]
IC50 (LSD1): 1000 to 10000 nM
IC50 (MV4;11 cells; [1]): > 10000 nM

(R)-4-(3-(3-aminopiperidin-1-yl)-1-(p-tolyl)-1H-pyrazol-5-yl)-2-fluorobenzonitrile/(R)-4-(5-(3-aminopiperidin-1-yl)-1-(p-tolyl)-1H-pyrazol-3-yl)-2-fluorobenzonitrile [Example 38]
IC50 (LSD1): < 500 nM
IC50 (MV4;11 cells; Day 5, read-out: Cell Titer-Glo IC50 (5 d)): 1000 to 10000 nM
